Measured values as given in patent US20220324770A1, “NITRIFICATION INHIBITORS” (The University of Melbourne, priority 2019, published 2022).

What was measured:
Dahlen soil = assay: Soil thin-layer chromatography (TLC) leaching study, Dahlen soil; assay type: physicochemical
Experimental: (§1) TLC plates were prepared based on methods described in the literature (Helling, C. S., Turner, B. C, Science 1968, 162, 562-563; Mohammad, A., Jabeen, N., JPC—Journal of Planar Chromatography—Modern TLC 2003, 16, 137-143). Masking tape (3 layers, ˜[…] total thickness) was used to outline three columns (4 cm W×12 cm H) on a glass TLC plate (20×20 cm). A slurry of freshly ground soil in distilled H2O (˜2:3 m/v) was then poured onto the prepared plate and spread evenly using a glass rod. Once even, the plate was dried overnight in an oven at 35° C. Careful removal of the masking tape afforded the TLC plate ready for sample application.
(§2) Samples of DMP (the active core of DMPP) or Compound 16 (˜1 mg) dissolved in acetone (100 μL) were pipetted in a straight line across the soil, 2 cm above the base of the plate. Application band thickness was kept under 0.5 cm. After 30 mins of drying time, the TLC plate was developed inside a glass developing chamber with distilled H2O (depth of 0.5 cm) until the solvent front reached the top of the soil (˜1 hr). […] The plate was then allowed to air dry overnight.
(§3) Once dry, the plate was divided into six horizontal bands corresponding to Rf values of: (1) <0.05 (baseline), (2) 0.05 to 0.25, (3) 0.25 to 0.45, (4) 0.45 to 0.65, (5) 0.65 to 0.85, and (6) 0.85 to 1. In sequence, soil in each band was carefully scraped off the glass backing and collected in vials. Special care was taken to avoid cross-contamination between soil of different bands, and the separate channels.
(§4) Individual soil bands collected from the TLC plate were extracted as follows: • 1. Addition of an aqueous solution of CaCl2/MgSO4 (0.01M and 0.45M respectively, 2 mL). • 2. Sonication for 5 minutes then manual shaking for 30 seconds. • 3. Addition of methyl-tert-butyl ether (MTBE, 2 mL) then manual shaking for 30 seconds. • 4. Sonication for 10 minutes then manual shaking for 30 seconds. • 5. Rested until soil began to settle, then frozen overnight at −20° C. • 6. After partial defrosting, the ethereal extract was filtered through nylon syringe filters (FilterBio®, 13 mm diameter, 0.45 µm pore size).
(§5) The filtered ethereal extracts (450 μL) were spiked with 50 μL of a standard solution of either cyclododecanone in MTBE (1.97 mg/mL, for DMP-treated samples) or cyclooctanone in MTBE (6.37 mg/mL, for 16-treated samples). Samples were then directly analysed by GC-MS (method: 70° C. for 5 mins, then ramp 10° C./min to 250° C., hold at 250° C. for 17 mins [total run time=40 minutes]) to analyse the presence or absence of the inhibitor in each soil band.
(§6) GC-MS peak areas calculated for the standards cyclooctanone (Rt=9.1 mins) and cyclododecanone (Rt=15.8 mins) were compared to those calculated for Compound 16 (Rt=13.9 mins) and DMP (Rt=7.6 mins) respectively, for each soil sample extract where inhibitor was detected as follows:
(§7) As each treatment was run in triplicate, mean values are reported for detected inhibitor percentages for each Rf band, with errors presented as the standard deviation.
as §2, with “the DCD” for “DMP (the active core of DMPP) or Compound 16”, “methanol (300” for “acetone (100”, “in” for “with”
(§8) Individual soil bands collected from the TLC plate were extracted as follows: • 1. Addition of methanol (2 mL). • 2. Manual shaking for 30 seconds following sonication for 15 minutes. • 3. Once soil began to settle, the methanolic extract was filtered through nylon syringe filters (FilterBio®, 13 mm diameter, 0.45 µm pore size). • 4. 300 μL of the methanolic extracts were evaporated under nitrogen flow, and then the residues was taken up in ultrapure acetonitrile (1 mL). • 5. […]

South Johnstone soil = assay: Soil thin-layer chromatography (TLC) leaching study, South Johnstone soil; assay type: physicochemical; settings: for Detected Inhibitor (%): South Johnstone soil TLC
Experimental: as §1, §2, §3, §4, §5, §6, §7
as §2, with “the DCD” for “DMP (the active core of DMPP) or Compound 16”, “methanol (300” for “acetone (100”, “in” for “with”
as §8

[1] = temperature of 35° C.; cited from earlier work

SMILES	Rf range in which the majority of the inhibitor was detected (Dahlen soil; Dahlen soil TLC)	Detected Inhibitor (%) (Dahlen soil; Dahlen soil TLC, Rf 0.05-0.25)	Detected Inhibitor (%) (Dahlen soil; Dahlen soil TLC, Rf 0.25-0.45)	Detected Inhibitor (%) (Dahlen soil; Dahlen soil TLC, Rf 0.45-0.65)	Detected Inhibitor (%) (Dahlen soil; Dahlen soil TLC, Rf 0.65-0.85)	mobility in soil TLC (Dahlen soil; neutral Dahlen soil)	leachability (conclusion) (Dahlen soil; neutral soils)	Detected Inhibitor (%) (South Johnstone soil; Rf 0.05-0.25)	Detected Inhibitor (%) (South Johnstone soil; Rf 0.25-0.45)	Detected Inhibitor (%) (South Johnstone soil; Rf 0.45-0.65)	Detected Inhibitor (%) (South Johnstone soil; Rf 0.65-0.85)	Detected Inhibitor (%) (South Johnstone soil; Rf 0.85-1)	leaching tendency (conclusion) (South Johnstone soil; acidic soils)	time DMPP remains effective [1]
CCCc1cn(CCC)nn1 [Compound 16, 1,4-dipropyl-1H-1,2,3-triazole]	0.25-0.45	3 ± 4	58 ± 14	38 ± 16	1 ± 1	reduced mobility compared to DMP	lower leachability than DMP and DCD	1 ± 1	5 ± 6	34 ± 5	49 ± 9	11 ± 3	lower-to-similar leaching tendencies to DCD	–
Cc1c[nH]nc1C.O=P(O)(O)O [DMPP, 3,4-dimethylpyrazole phosphate, reference compound]	–	–	–	–	–	–	–	–	–	–	–	–	–	only one week
